Source: patent US10208089B2, “Modulation of complement activity” (priority 2014, dated 2019)
Starred links: 1 amine or outer side, 2 acyl side, 3 side chain; linkers in the order of their positions; H or OH if unused. Positions of bridges follow the written chain, without caps; N, C: chain ends. Non-standard residues stand in square brackets, D forms with d. Residues, ends and D or L forms follow the SMILES beside them. Ala(1H-tetrazol-5-yl) = N[C@@H](Cc1nnn[nH]1)C(=O)O; Trp(7-aza) = N[C@@H](Cc1c[nH]c2ncccc12)C(=O)O; Phg(2-OMe) = COc1ccccc1[C@H](N)C(=O)O; mXylylene = c1cc(C[*:1])cc(C[*:2])c1; pXylylene = c1cc(C[*:2])ccc1C[*:1]; hPhe = N[C@@H](CCc1ccccc1)C(=O)O; Chg = N[C@H](C(=O)O)C1CCCCC1; Phg = N[C@H](C(=O)O)c1ccccc1; Tle = CC(C)(C)[C@H](N)C(=O)O; NMeS = CN[C@@H](CO)C(=O)O; hCys = N[C@@H](CCS)C(=O)O; Nva = CCC[C@H](N)C(=O)O; Sar = CNCC(=O)O

Target: C5 (Homo sapiens, UniProt P01031)
Sequence (P01031 19-1676): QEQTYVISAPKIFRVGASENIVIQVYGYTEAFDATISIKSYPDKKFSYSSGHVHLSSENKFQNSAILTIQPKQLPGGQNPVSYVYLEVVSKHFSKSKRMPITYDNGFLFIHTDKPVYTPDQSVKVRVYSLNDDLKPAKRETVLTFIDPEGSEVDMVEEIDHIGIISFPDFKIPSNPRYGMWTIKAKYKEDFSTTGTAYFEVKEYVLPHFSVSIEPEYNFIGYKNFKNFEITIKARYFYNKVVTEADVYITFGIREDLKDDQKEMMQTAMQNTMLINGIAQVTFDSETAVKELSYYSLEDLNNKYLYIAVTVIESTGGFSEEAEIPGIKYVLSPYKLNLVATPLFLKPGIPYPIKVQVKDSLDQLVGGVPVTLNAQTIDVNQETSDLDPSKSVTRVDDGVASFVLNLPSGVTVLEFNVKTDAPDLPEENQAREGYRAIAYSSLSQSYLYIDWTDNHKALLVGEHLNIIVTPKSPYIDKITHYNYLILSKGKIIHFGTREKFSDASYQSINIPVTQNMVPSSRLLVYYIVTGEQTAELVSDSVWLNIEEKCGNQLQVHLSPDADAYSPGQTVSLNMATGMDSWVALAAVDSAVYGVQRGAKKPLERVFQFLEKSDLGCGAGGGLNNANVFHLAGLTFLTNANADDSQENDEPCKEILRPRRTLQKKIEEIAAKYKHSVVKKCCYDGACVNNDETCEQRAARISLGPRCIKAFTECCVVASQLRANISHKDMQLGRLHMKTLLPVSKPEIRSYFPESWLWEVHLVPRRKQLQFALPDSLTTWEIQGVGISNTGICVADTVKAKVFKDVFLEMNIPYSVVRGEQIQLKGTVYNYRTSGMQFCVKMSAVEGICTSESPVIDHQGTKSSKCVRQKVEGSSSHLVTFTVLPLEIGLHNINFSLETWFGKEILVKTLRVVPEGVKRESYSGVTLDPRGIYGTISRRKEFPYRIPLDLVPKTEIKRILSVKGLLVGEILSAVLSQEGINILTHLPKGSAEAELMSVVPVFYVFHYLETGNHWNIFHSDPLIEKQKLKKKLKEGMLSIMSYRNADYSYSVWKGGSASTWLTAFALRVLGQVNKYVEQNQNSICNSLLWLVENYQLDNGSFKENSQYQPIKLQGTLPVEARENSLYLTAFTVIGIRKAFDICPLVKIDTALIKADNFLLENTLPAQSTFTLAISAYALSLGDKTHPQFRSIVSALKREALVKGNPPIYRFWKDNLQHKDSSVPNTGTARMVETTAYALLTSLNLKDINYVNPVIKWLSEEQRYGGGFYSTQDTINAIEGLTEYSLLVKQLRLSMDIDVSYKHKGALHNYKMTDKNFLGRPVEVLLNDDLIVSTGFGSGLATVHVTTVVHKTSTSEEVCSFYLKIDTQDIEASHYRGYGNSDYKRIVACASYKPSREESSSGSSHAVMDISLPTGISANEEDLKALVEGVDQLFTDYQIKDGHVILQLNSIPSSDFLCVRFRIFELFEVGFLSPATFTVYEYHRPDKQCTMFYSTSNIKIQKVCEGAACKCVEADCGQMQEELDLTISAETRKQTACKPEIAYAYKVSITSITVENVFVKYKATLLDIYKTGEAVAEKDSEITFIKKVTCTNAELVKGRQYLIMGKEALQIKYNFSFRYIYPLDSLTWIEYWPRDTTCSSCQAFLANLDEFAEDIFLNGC
Assay: Human hemolysis assay (RBC lysis assay using complete human sera)
Format: cell-based
Parameters: with complete human sera (Complement Technology, Tyler Tex.) and polypeptides; tissue Complement Technology, Tyler Tex; host or cells: complete human serum
[1] = inhibition of lysis of antibody-sensitized sheep erythrocytes, complete human sera

Row | Structure (SMILES) | IC50 [1] [µM] | IC50 (7-azatryptophan variant polypeptides of R3008, inhibition of red blood cell lysis) [µM]
1 | CCC[C@H](NC(=O)[C@@H](NC(=O)[C@@H]1CCCN1C(=O)[C@H](Cc1ccc(O)cc1)NC(=O)[C@H](CCC(=O)O)NC(=O)[C@H](Cc1c[nH]c2ncccc12)NC(=O)[C@H](Cc1ccc(O)cc1)NC(=O)[C@@H](NC(=O)[C@H](Cc1nnn[nH]1)NC(=O)[C@@H]1CSCc2cccc(c2)CSC[C@H](NC(C)=O)C(=O)N[C@@H](C(C)C)C(=O)N[C@@H](CCC(=O)O)C(=O)N[C@@H](CCCNC(=N)N)C(=O)N[C@@H](Cc2ccccc2)C(=O)N1)C(C)(C)C)C1CCCCC1)C(N)=O [Compound R3168, [mXylyl(1,6)]Ac-C-V-E-R-F-C-Asp(T)-Tbg-Y-azaTrp-E-Y-P-Chg-Nvl-NH2] (Ac-CVERFC[Ala(1H-tetrazol-5-yl)][Tle]Y[Trp(7-aza)]EYP[Chg][Nva]-NH2; linker 1-6 via mXylylene) | 0.0075 | –
2 | CCC[C@H](NC(C)=O)C(=O)N[C@H]1CSCc2cccc(c2)CSC[C@@H](C(N)=O)NC(=O)[C@H](Cc2c[nH]cn2)NC(=O)[C@H](CO)N(C)C(=O)[C@H](Cc2ccc(O)cc2)NC(=O)[C@H](CCC(=O)O)NC(=O)[C@H](Cc2c[nH]c3ncccc23)NC(=O)[C@H]([C@@H](C)O)NC(=O)[C@H](c2ccccc2)NC1=O [Compound R3013, [mXyly1(2,10)]Ac-Nvl-C-Phg-T-azaTrp-E-Y-(N-Me)S-H-C-NH2] (Ac-[Nva]C[Phg]T[Trp(7-aza)]EY[NMeS]HC-NH2; linker 2-10 via mXylylene) | 0.344 | –
3 | CCC[C@H](NC(=O)[C@@H]1CSCc2cccc(c2)CSC[C@H](NC(=O)[C@H](CCC)NC(C)=O)C(=O)N[C@@H](Cc2ccccc2)C(=O)N[C@@H]([C@@H](C)O)C(=O)N[C@@H](Cc2c[nH]c3ncccc23)C(=O)N[C@@H](CCC(=O)O)C(=O)N[C@@H](Cc2ccc(O)cc2)C(=O)N(C)[C@@H](CO)C(=O)N[C@@H](C)C(=O)N1)C(N)=O [Compound R3090, [mXyly1(2,10)]Ac-Nvl-C-F-T-azaTrp-E-Y-(N-Me)S-A-C-Nvl-NH2] (Ac-[Nva]CFT[Trp(7-aza)]EY[NMeS]AC[Nva]-NH2; linker 2-10 via mXylylene) | > 100 | –
4 | CCC[C@H](NC(=O)[C@@H]1CSCc2ccc(cc2)CSCC[C@H](NC(=O)[C@H](CCC)NC(C)=O)C(=O)N[C@@H](c2ccccc2)C(=O)N[C@@H]([C@@H](C)O)C(=O)N[C@@H](Cc2c[nH]c3ncccc23)C(=O)N[C@@H](CCC(=O)O)C(=O)N[C@@H](Cc2ccc(O)cc2)C(=O)N(C)[C@@H](CO)C(=O)N[C@@H](Cc2c[nH]cn2)C(=O)N1)C(N)=O [Compound R3104, [pXylyl(2,10)]Ac-Nvl-homoC-Phg-T-azaTrp-E-Y-(N-Me)S-H-C-Nvl-NH2] (Ac-[Nva][hCys][Phg]T[Trp(7-aza)]EY[NMeS]HC[Nva]-NH2; linker 2-10 via pXylylene) | > 2 | –
5 | CCC[C@H](NC(=O)[C@@H]1CCCN1C(=O)[C@H](CCC)NC(=O)[C@@H]1CSCc2cccc(c2)CSC[C@H](NC(=O)[C@H](CCC)NC(C)=O)C(=O)N[C@@H](Cc2ccc(O)cc2)C(=O)N[C@@H](CCC(=O)O)C(=O)N(C)CC(=O)N[C@@H](C(C)(C)C)C(=O)N[C@@H](Cc2ccc(O)cc2)C(=O)N[C@@H](Cc2c[nH]c3ncccc23)C(=O)N[C@@H](CCC(=O)O)C(=O)N1)C(N)=O [Compound R3009, [mXylyl(2,10)]Ac-Nvl-C-Y-E-(N-Me)G-Tbg-Y-azaTrp-E-C-Nvl-P-Nvl-NH2] (Ac-[Nva]CYE[Sar][Tle]Y[Trp(7-aza)]EC[Nva]P[Nva]-NH2; linker 2-10 via mXylylene) | > 100 | –
6 | CCC[C@H](NC(=O)[C@@H]1CSCc2cccc(c2)CSCC[C@H](NC(=O)[C@H](CCC)NC(C)=O)C(=O)N[C@@H](c2ccccc2)C(=O)N[C@@H]([C@@H](C)O)C(=O)N[C@@H](Cc2c[nH]c3ncccc23)C(=O)N[C@@H](CCC(=O)O)C(=O)N[C@@H](Cc2ccc(O)cc2)C(=O)N(C)[C@@H](CO)C(=O)N[C@@H](Cc2c[nH]cn2)C(=O)N1)C(N)=O [Compound R3103, [mXylyl(2,10)]Ac-Nvl-homoC-Phg-T-azaTrp-E-Y-(N-Me)S-H-C-Nvl-NH2] (Ac-[Nva][hCys][Phg]T[Trp(7-aza)]EY[NMeS]HC[Nva]-NH2; linker 2-10 via mXylylene) | > 25 | –
7 | CCC[C@H](NC(=O)[C@@H](NC(=O)[C@@H]1CCCN1C(=O)[C@@H]1CSCc2cccc(c2)CSC[C@H](NC(=O)[C@H](CCC)NC(C)=O)C(=O)N[C@@H](Cc2ccc(O)cc2)C(=O)N[C@@H](CCC(=O)O)C(=O)N[C@@H](CC(N)=O)C(=O)N[C@@H](C(C)(C)C)C(=O)N[C@@H](Cc2ccc(O)cc2)C(=O)N[C@@H](Cc2c[nH]c3ncccc23)C(=O)N[C@@H](CCC(=O)O)C(=O)N1)c1ccccc1)C(N)=O [Compound R3018, [mXylyl(2,10)]Ac-Nvl-C-Y-E-N-Tbg-Y-azaTrp-E-C-P-Phg-Nvl-NH2] (Ac-[Nva]CYEN[Tle]Y[Trp(7-aza)]ECP[Phg][Nva]-NH2; linker 2-10 via mXylylene) | > 5.73 | –
8 | CCC[C@H](NC(=O)[C@@H]1CSCc2cccc(c2)CSC[C@H](NC(=O)[C@H](CCC)NC(C)=O)C(=O)N[C@@H](c2ccccc2)C(=O)N[C@@H]([C@@H](C)O)C(=O)N[C@@H](Cc2c[nH]c3ncccc23)C(=O)N[C@@H](CCC(=O)O)C(=O)N[C@@H](CCc2ccccc2)C(=O)N(C)[C@@H](CO)C(=O)N[C@@H](C)C(=O)N1)C(N)=O [Compound R3095, [mXyly1(2,10)]Ac-Nvl-C-Phg-T-azaTrp-E-(homo)F-(N-Me)S-A-C-Nvl-NH2] (Ac-[Nva]C[Phg]T[Trp(7-aza)]E[hPhe][NMeS]AC[Nva]-NH2; linker 2-10 via mXylylene) | > 50 | –
9 | CCC[C@H](NC(=O)[C@@H]1CSCc2cccc(c2)CSC[C@H](NC(=O)[C@H](CCC)NC(C)=O)C(=O)N[C@@H](c2ccccc2)C(=O)N[C@@H]([C@@H](C)O)C(=O)N[C@@H](Cc2c[nH]c3ncccc23)C(=O)N[C@@H](CCC(=O)O)C(=O)N[C@@H](Cc2ccc(O)cc2)C(=O)N[C@@H](CO)C(=O)N[C@@H](C)C(=O)N1)C(N)=O [Compound R3084, [mXylyl(2,10)]Ac-Nvl-C-Phg-T-azaTrp-E-Y-S-A-C-Nvl-NH2] (Ac-[Nva]C[Phg]T[Trp(7-aza)]EYSAC[Nva]-NH2; linker 2-10 via mXylylene) | > 100 | –
10 | CCC[C@H](NC(=O)[C@@H]1CSCc2cccc(c2)CSC[C@H](NC(=O)[C@H](CCC)NC(C)=O)C(=O)N[C@@H](c2ccccc2OC)C(=O)N[C@@H]([C@@H](C)O)C(=O)N[C@@H](Cc2c[nH]c3ncccc23)C(=O)N[C@@H](CCC(=O)O)C(=O)N[C@@H](Cc2ccc(O)cc2)C(=O)N(C)[C@@H](CO)C(=O)N[C@@H](Cc2c[nH]cn2)C(=O)N1)C(N)=O [Compound R3087, [mXylyl(2,10)]Ac-Nvl-C-(2-OMe)Phg-T-azaTrp-E-Y-(N-Me)S-H-C-Nvl-NH2] (Ac-[Nva]C[Phg(2-OMe)]T[Trp(7-aza)]EY[NMeS]HC[Nva]-NH2; linker 2-10 via mXylylene) | > 25 | –
11 | CCC[C@H](NC(=O)[C@@H]1CSCc2cccc(c2)CSC[C@H](NC(=O)[C@H](CCC)NC(C)=O)C(=O)N[C@@H](c2ccccc2)C(=O)N[C@@H]([C@@H](C)O)C(=O)N[C@@H](Cc2c[nH]c3ncccc23)C(=O)N[C@@H](CCC(=O)O)C(=O)N[C@@H](Cc2ccc(O)cc2)C(=O)N(C)[C@@H](CO)C(=O)N[C@@H](Cc2c[nH]cn2)C(=O)NCC(=O)N1)C(N)=O [Compound R3101, [mXylyl(2,10)]Ac-Nvl-C-Phg-T-azaTrp-E-Y-(N-Me)S-A-H-G-Nvl-NH2] (Ac-[Nva]C[Phg]T[Trp(7-aza)]EY[NMeS]HGC[Nva]-NH2; linker 2-11 via mXylylene) | > 100 | –
12 | CCC[C@H](NC(=O)[C@@H]1CSCc2cccc(c2)CSC[C@H](NC(=O)[C@H](CCC)NC(C)=O)C(=O)N[C@@H](c2ccccc2)C(=O)N[C@@H]([C@@H](C)O)C(=O)N[C@H](Cc2c[nH]c3ccccc23)C(=O)N[C@@H](CCC(=O)O)C(=O)N[C@@H](Cc2ccc(O)cc2)C(=O)N(C)[C@@H](CO)C(=O)N[C@@H](Cc2c[nH]cn2)C(=O)N1)C(N)=O [Compound R3132, [mXylyl(2,10)]Ac-Nvl-C-Phg-T-(D-Trp)-E-Y-(N-Me)S-H-C-Nvl-NH2] (Ac-[Nva]C[Phg]T[dW]EY[NMeS]HC[Nva]-NH2; linker 2-10 via mXylylene) | > 100 | > 100
13 | CCC[C@H](NC(C)=O)C(=O)N[C@@H](CS)C(=O)N[C@@H](Cc1ccc(O)cc1)C(=O)N[C@@H](CCC(=O)O)C(=O)N[C@@H](CC(N)=O)C(=O)N[C@H](C(=O)N[C@@H](Cc1ccc(O)cc1)C(=O)N[C@@H](Cc1c[nH]c2ncccc12)C(=O)N[C@@H](CCC(=O)O)C(=O)N[C@@H](Cc1ccc(O)cc1)C(=O)N(C)CC(=O)N[C@@H](CCC)C(=O)N(C)[C@@H](CO)C(N)=O)C(C)(C)C [Compound R3001, Ac-Nvl-C-Y-E-N-Tbg-Y-azaTrp-E-Y-(N-Me)G-Nvl-(N-Me)S-NH2] (Ac-[Nva]CYEN[Tle]Y[Trp(7-aza)]EY[Sar][Nva][NMeS]-NH2) | 0.0672 | –
14 | CCC[C@H](NC(=O)[C@@H]1CSCc2cccc(c2)CSC[C@H](NC(=O)[C@H](CCC)NC(C)=O)C(=O)N[C@@H](c2ccccc2)C(=O)N[C@@H]([C@@H](C)O)C(=O)N[C@@H](Cc2c[nH]c3ncccc23)C(=O)N[C@@H](CCC(=O)O)C(=O)N[C@@H](C)C(=O)N(C)[C@@H](CO)C(=O)N[C@@H](Cc2c[nH]cn2)C(=O)N1)C(N)=O [Compound R3036, [mXylyl(2,10)]Ac-Nvl-C-Phg-T-azaTrp-E-A-(N-Me)S-H-C-Nvl-NH2] (Ac-[Nva]C[Phg]T[Trp(7-aza)]EA[NMeS]HC[Nva]-NH2; linker 2-10 via mXylylene) | > 50 | –
15 | CCC[C@H](NC(=O)[C@@H](NC(=O)[C@@H]1CCCN1C(=O)[C@H](Cc1ccc(O)cc1)NC(=O)[C@H](CCC(=O)O)NC(=O)[C@H](Cc1c[nH]c2ncccc12)NC(=O)[C@H](Cc1ccc(O)cc1)NC(=O)[C@@H](NC(=O)[C@H](CC(=O)O)NC(=O)[C@@H]1CSCc2cccc(c2)CSC[C@H](NC(C)=O)C(=O)N[C@@H](C(C)C)C(=O)N[C@@H](C)C(=O)N[C@@H](CCCNC(=N)N)C(=O)N[C@@H](Cc2ccccc2)C(=O)N1)C(C)(C)C)c1ccccc1)C(N)=O [Compound R3150, [mXylyl(1,6)]Ac-C-V-A-R-F-C-D-Tbg-Y-azaTrp-E-Y-P-Phg-Nvl-NH2] (Ac-CVARFCD[Tle]Y[Trp(7-aza)]EYP[Phg][Nva]-NH2; linker 1-6 via mXylylene) | 0.037 | –
